Values of other authors in publication PMC9166630, “SAR Probing of KX2-391 Provided Analogues With Juxtaposed Activity Profile Against Major Oncogenic Kinases” (Frontiers in Oncology, 2022).

System: HT-29 colon cancer cell line
Design: method as in PMID 29617135
Settings: read-out: GI50, HT29 (Colon Cancer); cited from earlier work

O=C(Cc1ccc(-c2ccccc2)cc1)NCc1cccc(F)c1 [KX1-136]
GI50: 877 nM
